Tested on: MV-4-11 cells
Assay: Gene expression microarray analysis (Affymetrix PrimeView) and GSEA
Assay type: cell-based, human
Design: RFU PODN (11730768_x_at) / Fold change /veh PODN (11730768_x_at) / RFU LINC00158 (11744669_a_at) / Fold change /veh LINC00158 (11744669_a_at) / RFU DUSP10 (11751237_a_at) / Fold change /veh DUSP10 (11751237_a_at) / RFU ID3 (11757404_x_at) / Fold change /veh ID3 (11757404_x_at) / RFU PLEKHG5 (11737974_s_at) / Fold change /veh PLEKHG5 (11737974_s_at) / RFU LRRC4B (11730491_at) / Fold change /veh LRRC4B (11730491_at) / RFU GIMAP4 (11747438_a_at) / Fold change /veh GIMAP4 (11747438_a_at) / RFU KRT8 (11758183_x_at) / Fold change /veh KRT8 (11758183_x_at) / RFU CNN1 (11734310_a_at) / Fold change /veh CNN1 (11734310_a_at) / RFU VPS37D (11726825_at) / Fold change /veh VPS37D (11726825_at) / RFU C10orf10 (11716522_x_at) / Fold change /veh C10orf10 (11716522_x_at) / RFU KIR2DL2 /// KIR2DL4 /// KIR2DL5A /// KIR2DL5B /// KIR2DS1 /// KIR2DS2 /// KIR2DS3 /// KIR2DS4 /// KIR3DL3 /// KIR3DL3 /// KIR3DS1 (11738374_at) / Fold change /veh KIR2DL2 /// KIR2DL4 /// KIR2DL5A /// KIR2DL5B /// KIR2DS1 /// KIR2DS2 /// KIR2DS3 /// KIR2DS4 /// KIR3DL3 /// KIR3DL3 /// KIR3DS1 (11738374_at) / RFU C1QL1 (11718748_at) / Fold change /veh C1QL1 (11718748_at) / RFU TMPRSS4 (11747572_a_at) / Fold change /veh TMPRSS4 (11747572_a_at) / RFU HAMP (11756126_x_at) / Fold change /veh HAMP (11756126_x_at) / RFU RNFT2 (11725882_a_at) / Fold change /veh RNFT2 (11725882_a_at) / RFU NR4A2 (11747474_a_at) / Fold change /veh NR4A2 (11747474_a_at) / RFU ABCC12 (11746883_a_at) / Fold change /veh ABCC12 (11746883_a_at) / RFU TMEM136 (11760407_x_at) / Fold change /veh TMEM136 (11760407_x_at) / RFU CLDN22 /// WWC2 (11732394_at) / Fold change /veh CLDN22 /// WWC2 (11732394_at) / RFU HLA-DPB1 (11760878_x_at) / Fold change /veh HLA-DPB1 (11760878_x_at) / RFU SPINT1 (11716480_a_at) / Fold change /veh SPINT1 (11716480_a_at) / RFU GAP43 (11754022_s_at) / Fold change /veh GAP43 (11754022_s_at) / RFU A4GNT (11735810_at) / Fold change /veh A4GNT (11735810_at) / RFU PRB3 (11715151_x_at) / Fold change /veh PRB3 (11715151_x_at) / RFU TUBB4B (11761932_at) / Fold change /veh TUBB4B (11761932_at) / RFU CAPN14 (11732068_a_at) / Fold change /veh CAPN14 (11732068_a_at) / RFU TMCC2 (11721928_a_at) / Fold change /veh TMCC2 (11721928_a_at) / RFU IRGQ (11745062_a_at) / Fold change /veh IRGQ (11745062_a_at) / RFU FAM174B (11720279_a_at) / Fold change /veh FAM174B (11720279_a_at) / RFU TMPRSS4 (11748680_a_at) / Fold change /veh TMPRSS4 (11748680_a_at) / RFU FAM212B (11763350_a_at) / Fold change /veh FAM212B (11763350_a_at) / RFU PLEKHG5 (11743358_a_at) / Fold change /veh PLEKHG5 (11743358_a_at) / RFU ZSCAN30 (11745921_a_at) / Fold change /veh ZSCAN30 (11745921_a_at) / RFU CMKLR1 (11741424_a_at) / Fold change /veh CMKLR1 (11741424_a_at) / RFU LOC101060620 /// MAPK8IP1 (11723275_at) / Fold change /veh LOC101060620 /// MAPK8IP1 (11723275_at) / RFU SPTSSB (11747773_x_at) / Fold change /veh SPTSSB (11747773_x_at) / RFU PRSS12 (11739890_at) / Fold change /veh PRSS12 (11739890_at) / RFU BIN1 (11741810_x_at) / Fold change /veh BIN1 (11741810_x_at) / RFU WNT11 (11732464_a_at) / Fold change /veh WNT11 (11732464_a_at) / RFU C10orf10 (11716521_a_at) / Fold change /veh C10orf10 (11716521_a_at) / RFU C5orf56 (11738089_at) / Fold change /veh C5orf56 (11738089_at) / RFU CYB561 (11721691_x_at) / Fold change /veh CYB561 (11721691_x_at) / RFU ANKRD19P (11752326_a_at) / Fold change /veh ANKRD19P (11752326_a_at) / RFU OR2T12 /// OR2T33 /// OR2T8 (11738714_s_at) / Fold change /veh OR2T12 /// OR2T33 /// OR2T8 (11738714_s_at) / RFU VCAN (11748164_a_at) / Fold change /veh VCAN (11748164_a_at) / RFU JSRP1 (11732532_at) / Fold change /veh JSRP1 (11732532_at) / RFU KRTAP10-11 (11738290_x_at) / Fold change /veh KRTAP10-11 (11738290_x_at) / RFU MYO3A (11730013_a_at) / Fold change /veh MYO3A (11730013_a_at) / RFU EBF3 (11725865_a_at) / Fold change /veh EBF3 (11725865_a_at) / RFU CAMK2N1 (11719241_x_at) / Fold change /veh CAMK2N1 (11719241_x_at) / RFU C5orf56 (11738088_a_at) / Fold change /veh C5orf56 (11738088_a_at) / RFU OLFML3 (11715873_a_at) / Fold change /veh OLFML3 (11715873_a_at) / RFU LOC100653217 /// NTM (11731650_a_at) / Fold change /veh LOC100653217 /// NTM (11731650_a_at) / RFU MAPK11 (11762145_a_at) / Fold change /veh MAPK11 (11762145_a_at) / RFU FIZ1 (11724087_x_at) / Fold change /veh FIZ1 (11724087_x_at) / RFU OASL (11726364_x_at) / Fold change /veh OASL (11726364_x_at) / RFU SOX15 (11748057_x_at) / Fold change /veh SOX15 (11748057_x_at) / RFU CD79A (11719716_a_at) / Fold change /veh CD79A (11719716_a_at) / RFU HIST1H1D (11736915_at) / Fold change /veh HIST1H1D (11736915_at) / RFU CASKIN2 (11723855_a_at) / Fold change /veh CASKIN2 (11723855_a_at) / RFU LOC730098 (11760151_x_at) / Fold change /veh LOC730098 (11760151_x_at) / RFU OR4N2 (11742367_at) / Fold change /veh OR4N2 (11742367_at) / RFU PRRT2 (11749266_a_at) / Fold change /veh PRRT2 (11749266_a_at) / RFU SNX32 (11753110_a_at) / Fold change /veh SNX32 (11753110_a_at) / RFU CDHR5 (11726645_a_at) / Fold change /veh CDHR5 (11726645_a_at) / RFU RCAN1 (11760418_a_at) / Fold change /veh RCAN1 (11760418_a_at) / RFU FAM167A (11723789_a_at) / Fold change /veh FAM167A (11723789_a_at) / RFU FAM26E (11764081_at) / Fold change /veh FAM26E (11764081_at) / RFU ISYNA1 (11749810_s_at) / Fold change /veh ISYNA1 (11749810_s_at) / RFU ACY1 (11761880_at) / Fold change /veh ACY1 (11761880_at) / RFU 11764098_at / Fold change /veh 11764098_at / RFU SAMD14 (11745864_x_at) / Fold change /veh SAMD14 (11745864_x_at) / RFU NPB (11741838_a_at) / Fold change /veh NPB (11741838_a_at) / RFU TMPRSS6 (11731388_a_at) / Fold change /veh TMPRSS6 (11731388_a_at) / RFU KRTAP10-2 (11738614_at) / Fold change /veh KRTAP10-2 (11738614_at) / RFU ARHGAP8 /// PRR5-ARHGAP8 (11727945_x_at) / Fold change /veh ARHGAP8 /// PRR5-ARHGAP8 (11727945_x_at) / RFU KRTAP5-7 /// NADSYN1 (11734609_at) / Fold change /veh KRTAP5-7 /// NADSYN1 (11734609_at) / RFU RASL12 (11751679_a_at) / Fold change /veh RASL12 (11751679_a_at) / RFU CDKN2B (11736163_a_at) / Fold change /veh CDKN2B (11736163_a_at) / RFU PRF1 (11729649_at) / Fold change /veh PRF1 (11729649_at) / RFU, ZNF638 /// ZNF638-IT1 / Fold change vs veh, ZNF638 /// ZNF638-IT1 / RFU, PANK3 / Fold change vs veh, PANK3 / RFU, SH3YL1 / Fold change vs veh, SH3YL1 / RFU, ZEB2 / Fold change vs veh, ZEB2 / RFU, NRIP1 / Fold change vs veh, NRIP1 / RFU, PTTG1IP / Fold change vs veh, PTTG1IP / RFU, CAPN2 / Fold change vs veh, CAPN2 / RFU, MED14 / Fold change vs veh, MED14 / RFU, SNORA58 / Fold change vs veh, SNORA58 / RFU, C1orf63 / Fold change vs veh, C1orf63 / RFU, LRRFIP1 / Fold change vs veh, LRRFIP1 / RFU, NDUFAF7 / Fold change vs veh, NDUFAF7 / RFU, SLC12A2 / Fold change vs veh, SLC12A2 / RFU, IBTK / Fold change vs veh, IBTK / RFU, ESF1 / Fold change vs veh, ESF1 / Fold change vs veh, TMEM50B / RFU, TAOK1 / Fold change vs veh, TAOK1 / RFU, ACBD3 / Fold change vs veh, ACBD3 / RFU, TMA16 / Fold change vs veh, TMA16 / RFU, RWDD3 / Fold change vs veh, RWDD3 / RFU, BCAT1 / Fold change vs veh, BCAT1 / RFU, EDEM3 / Fold change vs veh, EDEM3 / RFU, TMEM33 / Fold change vs veh, TMEM33 / RFU, WDR75 / Fold change vs veh, WDR75 / RFU, AHCTF1 / Fold change vs veh, AHCTF1 / RFU, TFRC / Fold change vs veh, TFRC / RFU, ZDHHC17 / Fold change vs veh, ZDHHC17 / RFU, NOM1 / Fold change vs veh, NOM1 / RFU, ARL8B / Fold change vs veh, ARL8B / RFU, ZBTB11 / Fold change vs veh, ZBTB11 / RFU, TAMM41 / Fold change vs veh, TAMM41 / RFU, KIAA1704 /// LOC100996395 / Fold change vs veh, KIAA1704 /// LOC100996395 / RFU, ING1 / Fold change vs veh, ING1 / RFU, TRMT61B / Fold change vs veh, TRMT61B / RFU, FUBP3 / Fold change vs veh, FUBP3 / RFU, TP53 / Fold change vs veh, TP53 / RFU, TNKS2 / Fold change vs veh, TNKS2 / RFU, ZFP14 / Fold change vs veh, ZFP14 / RFU, ACTR2 / Fold change vs veh, ACTR2 / RFU, PPP3R1 / Fold change vs veh, PPP3R1 / RFU, PIK3R1 / Fold change vs veh, PIK3R1 / RFU, HNRNPA1 / Fold change vs veh, HNRNPA1 / RFU, RNF170 / Fold change vs veh, RNF170 / RFU, ZNF28 / Fold change vs veh, ZNF28 / RFU, RNGTT / Fold change vs veh, RNGTT / RFU, OGT / Fold change vs veh, OGT / RFU, BRD1 / Fold change vs veh, BRD1 / RFU, MARS / Fold change vs veh, MARS / RFU, ZNF655 / Fold change vs veh, ZNF655 / RFU, FAHD1 / Fold change vs veh, FAHD1 / RFU, BDP1 / Fold change vs veh, BDP1 / RFU, LRRCC1 / Fold change vs veh, LRRCC1 / RFU, ARID1A / Fold change vs veh, ARID1A / RFU, ZNF146 / Fold change vs veh, ZNF146 / RFU, ZNF330 / Fold change vs veh, ZNF330 / RFU, GPN3 / Fold change vs veh, GPN3 / RFU, C9orf123 / Fold change vs veh, C9orf123 / RFU, N4BP2L2 / Fold change vs veh, N4BP2L2 / RFU, ARFIP1 / Fold change vs veh, ARFIP1 / RFU, FAM179B / Fold change vs veh, FAM179B / RFU, BCL10 / Fold change vs veh, BCL10 / RFU, UHRF1BP1L / Fold change vs veh, UHRF1BP1L / RFU, BET1 / Fold change vs veh, BET1 / RFU, CNOT2 / Fold change vs veh, CNOT2 / RFU, ZNF268 / Fold change vs veh, ZNF268 / Fold change vs veh, ZNF507 / RFU, DGCR2 / Fold change vs veh, DGCR2 / RFU, WDSUB1 / Fold change vs veh, WDSUB1 / Fold change vs veh, HSP90B1 /// MIR3652 / RFU, ADSS / Fold change vs veh, ADSS / RFU, GK / Fold change vs veh, GK / RFU, ZNF148 / Fold change vs veh, ZNF148 / RFU, TAF9 / Fold change vs veh, TAF9 / RFU, SLC1A5 / Fold change vs veh, SLC1A5 / RFU, SLMO2 / Fold change vs veh, SLMO2 / RFU, ABCC4 / Fold change vs veh, ABCC4 / RFU, LOC101060439 /// RAP1B / Fold change vs veh, LOC101060439 /// RAP1B / RFU, RFX7 / Fold change vs veh, RFX7 / RFU, GTPBP10 / Fold change vs veh, GTPBP10 / RFU, CNEP1R1 / Fold change vs veh, CNEP1R1 / RFU, BIVM-ERCC5 /// ERCC5 / Fold change vs veh, BIVM-ERCC5 /// ERCC5 / RFU, ILF3 / Fold change vs veh, ILF3 / RFU 11762660_at / Fold change /veh 11762660_at / RFU VCAN (11757783_s_at) / Fold change /veh VCAN (11757783_s_at) / RFU DDX43 (11728927_at) / Fold change /veh DDX43 (11728927_at) / RFU KRT8 (11758188_x_at) / Fold change /veh KRT8 (11758188_x_at) / RFU NKD1 (11759106_at) / Fold change /veh NKD1 (11759106_at) / RFU SRD5A1 (11742802_a_at) / Fold change /veh SRD5A1 (11742802_a_at) / RFU TPSAB1 /// TPSB2 (11721975_s_at) / Fold change /veh TPSAB1 /// TPSB2 (11721975_s_at) / RFU GSTM3 (11746129_a_at) / Fold change /veh GSTM3 (11746129_a_at) / RFU IL23R (11737362_x_at) / Fold change /veh IL23R (11737362_x_at) / RFU TMEM51 (11727254_a_at) / Fold change /veh TMEM51 (11727254_a_at) / RFU PIWIL2 (11732686_x_at) / Fold change /veh PIWIL2 (11732686_x_at) / RFU ORM1 (11744905_x_at) / Fold change /veh ORM1 (11744905_x_at) / RFU CCDC152 (11743942_at) / Fold change /veh CCDC152 (11743942_at) / RFU ECM1 (11717891_a_at) / Fold change /veh ECM1 (11717891_a_at) / RFU IL23R (11748794_a_at) / Fold change /veh IL23R (11748794_a_at) / RFU TNFAIP8L3 (11732012_x_at) / Fold change /veh TNFAIP8L3 (11732012_x_at) / RFU MBOAT4 (11741988_at) / Fold change /veh MBOAT4 (11741988_at) / RFU 11764193_at / Fold change /veh 11764193_at / RFU TMEM53 (11763286_at) / Fold change /veh TMEM53 (11763286_at) / RFU MAGEB2 (11727129_at) / Fold change /veh MAGEB2 (11727129_at) / RFU TMEM200A (11744735_a_at) / Fold change /veh TMEM200A (11744735_a_at) / RFU CCDC152 (11751479_a_at) / Fold change /veh CCDC152 (11751479_a_at) / RFU FAM211A (11726209_a_at) / Fold change /veh FAM211A (11726209_a_at) / RFU RGS16 (11746705_a_at) / Fold change /veh RGS16 (11746705_a_at) / RFU VCAN (11755009_s_at) / Fold change /veh VCAN (11755009_s_at) / RFU RHOB (11743442_s_at) / Fold change /veh RHOB (11743442_s_at) / RFU RGS16 (11720943_a_at) / Fold change /veh RGS16 (11720943_a_at) / RFU RGS16 (11720944_at) / Fold change /veh RGS16 (11720944_at) / RFU, VPS4B / Fold change vs veh, VPS4B / RFU, CREB1 / Fold change vs veh, CREB1 / RFU, DNAJC13 / Fold change vs veh, DNAJC13 / RFU, GNAQ / Fold change vs veh, GNAQ / RFU, CDK5R1 / Fold change vs veh, CDK5R1 / RFU, ZRANB3 / Fold change vs veh, ZRANB3 / RFU, CUL4A / Fold change vs veh, CUL4A / RFU, CCNY / Fold change vs veh, CCNY / RFU, UFL1 / Fold change vs veh, UFL1 / RFU, COG3 / Fold change vs veh, COG3 / RFU, DIAPH2 / Fold change vs veh, DIAPH2 / RFU, SKA2 / Fold change vs veh, SKA2 / RFU, AFF3 / Fold change vs veh, AFF3 / RFU, LMF1 / Fold change vs veh, LMF1 / RFU, IPO11 / Fold change vs veh, IPO11 / RFU, DFFB / Fold change vs veh, DFFB / RFU, FOXP1 / Fold change vs veh, FOXP1 / RFU, CARD8 / Fold change vs veh, CARD8 / RFU, STRN3 / Fold change vs veh, STRN3 / RFU, ADK / Fold change vs veh, ADK / RFU, RASSF2 / Fold change vs veh, RASSF2 / RFU, WIPF1 / Fold change vs veh, WIPF1 / RFU, LARP1B / Fold change vs veh, LARP1B / RFU, RASA1 / Fold change vs veh, RASA1 / RFU, RB1 / Fold change vs veh, RB1 / RFU, PPFIA1 / Fold change vs veh, PPFIA1 / RFU, MAT2A / Fold change vs veh, MAT2A / RFU, CCT5 / Fold change vs veh, CCT5 / RFU, WDR92 / Fold change vs veh, WDR92 / RFU, CUX1 / Fold change vs veh, CUX1 / RFU, TTC7A / Fold change vs veh, TTC7A / RFU, TMEM135 / Fold change vs veh, TMEM135 / RFU, DEPTOR / Fold change vs veh, DEPTOR / RFU, CPM / Fold change vs veh, CPM / RFU, DNAJB6 / Fold change vs veh, DNAJB6 / RFU, CACNA2D3 / Fold change vs veh, CACNA2D3 / RFU, DTX4 / Fold change vs veh, DTX4 / RFU, TFCP2 / Fold change vs veh, TFCP2 / RFU, GMCL1 /// GMCL1P1 / Fold change vs veh, GMCL1 /// GMCL1P1 / RFU, AEBP2 / Fold change vs veh, AEBP2 / RFU, SNHG1 /// SNORD22 /// SNORD25 /// SNORD26 /// SNORD27 /// SNORD28 /// SNORD29 /// SNORD31 / Fold change vs veh, SNHG1 /// SNORD22 /// SNORD25 /// SNORD26 /// SNORD27 /// SNORD28 /// SNORD29 /// SNORD31 / Fold change (Aza/veh), C12orf56 (ProbeSet 11735607_a_at) / Fold change (ACY-1035/veh), C12orf56 (ProbeSet 11735607_a_at) / Fold change (Aza/veh), FGFR1OP (ProbeSet 11751329_s_at) / Fold change (ACY-1035/veh), FGFR1OP (ProbeSet 11751329_s_at) / Fold change (Aza/veh), VPS36 (ProbeSet 11739960_a_at) / Fold change (ACY-1035/veh), VPS36 (ProbeSet 11739960_a_at) / RFU SYPL1 (11715823_x_at) / Fold change /veh SYPL1 (11715823_x_at) / RFU IGFBP7 (11715501_s_at) / Fold change /veh IGFBP7 (11715501_s_at) / RFU REEP3 (11722064_at) / Fold change /veh REEP3 (11722064_at) / RFU IGLL1 (11728026_x_at) / Fold change /veh IGLL1 (11728026_x_at): dose or concentration left out as unconfirmed
Details: MV-4-11 cells, 48 hours

Q: With Nc1ccc(-c2cccs2)cc1NC(=O)c1ccc2c(c1)cc(C1CC1)n2CCN1CCOCC1 [ACY-1035] as the compound, how does the “Fold change /veh FAM174B (11720279_a_at)” value read?
A: Its value is 1.09.

— paper PMC5218480 (PLoS ONE, 2017)
